This is an account of results in patent publication US20250326712A1, “IONIZABLE LIPIDS” (eTheRNA immunotherapies NV, priority 2022, published 2025).

Data set [1] in a line: LNP size and polydispersity measured with a Zetasizer Nano. The format is physicochemical. The following applies: LNP: ionizable lipid/DSPC/cholesterol/DMG-PEG2000 about 50/10/38.5/1.5, eGFP mRNA, dialyzed against TBS; for size: in nm (unit assumed). The protocol: (§1) Lipid based nanoparticles were produced by microfluidic mixing of an mRNA solution in sodium acetate buffer (100 mM, pH 4) and lipid solution in a 2:1 volume ratio at a speed of 16 mL/min using the NanoAssemblr Benchtop (Precision Nanosystems). LNPs were produced at a standard molar ratio ionizable lipid/DSPC (Avanti Polar Lipids)/cholesterol (Sigma)/DMG-PEG2000 (Avanti Polar Lipids) of about 50/10/38.5/1.5. eGFP mRNA was encapsulated in all LNPs as reporter mRNA, at a mRNA/ionizable lipid molar ratio of 1/10. LNPs were dialyzed against TBS (10000 times more TBS volume than LNP volume) using slide-a-lyzer dialysis cassettes (20K MWCO, 3 mL, ThermoFisher). Size, polydispersity and zeta potential were measured with a Zetasizer Nano (Malvern). mRNA encapsulation was measured by standard Ribogreen RNA assay (Invitrogen).

Data set [2] in a line: mRNA encapsulation by Ribogreen RNA assay. The format is physicochemical. Particulars: LNP: ionizable lipid/DSPC/cholesterol/DMG-PEG2000 about 50/10/38.5/1.5, eGFP mRNA, mRNA/ionizable lipid 1/10. As to the method:
as §1

The test system of another data set is hEPO expression. In words: In vivo hEPO expression after IV mRNA LNP injection (hEPO ELISA). On the set-up: species or system BALB/c mice. Particulars: hEPO mRNA LNPs, 10 μg mRNA intravenous in tail vein, different timepoints, FIGS. 3 A & B. The protocol:
LNPs were produced at a standard molar ratio ionizable lipid/DSPC/cholesterol/DMG-PEG2000 of about 50/10/38.5/1.5. Human erythropoietin (hEPO) mRNA was encapsulated in all LNPs at an mRNA/ionizable lipid molar ratio of 1/10.
BALB/c mice (female, 6 weeks old mice) were injected intravenously in the tail vein with 200 μl of the respective mRNA LNPs (10 μg mRNA, TBS buffer) or control buffer. Blood was collected from the submandibular vein at different timepoints after which hEPO concentrations were determined using hEPO ELISA assay kit (catalog #BMS2035-2—Thermofisher Scientific), according to the manufacturer's instructions.
For orientation: An ELISA detects its analyte on a solid surface through an enzyme-linked reagent.

In data set [1], `CCCCCCCC/C=C\CCCCCCCC(=O)OCC(CNC(=O)OCCSSCCOC(=O)NCCN1CCCCCC1)OC(=O)CCCCCCC/C=C\CCCCCCCC` (stereo not shown) [ETG-23, reference compound] showed a PDI of 0.082 and a size of 75.97. The “% encap” value in data set [2] is on record as 97%.
In the same order, the values of `CCCCCC/C=C\COC(=O)CCCCCCCN(CCCCCCCC(=O)OC(CCCCCCCC)CCCCCCCC)C(=O)OCCSSCCOC(=O)NCCN(C)C` [ETG-51] are 0.119, 111.97 and 96%.
In data set [1], `CCCCCC/C=C\COC(=O)CCCCCCCN(CCCCCCCC(=O)OC(CCCCCCCC)CCCCCCCC)C(=O)OCCSSCCOC(=O)NCCN1CCCCCC1` [ETG-52] displayed a PDI of 0.099 and a size of 90.70. Further, the “% encap” value in data set [2] was determined as 97%.
Turning to `CCCCCCCCCOC(=O)CCCCCCCN(CCCCCCCC(=O)OC(CCCCCCCC)CCCCCCCC)C(=O)OCCSSCCOC(=O)NCCN(C)C` [ETG-53], in the data set with hEPO expression, the “hEPO expression (serum concentration, area under curve)” value was “higher hEPO expression compared to ETG-23 control”. Also, in data set [1], the PDI stood at 0.085 and the size is 103.23. In data set [2], the “% encap” value is 97%.
With `CCCCCCCCCOC(=O)CCCCCCCN(CCCCCCCC(=O)OC(CCCCCCCC)CCCCCCCC)C(=O)OCCSSCCOC(=O)NCCN1CCCCCC1` [ETG-54], in data set [1], the PDI was determined as 0.150 and the size turned out to be 90.30. Besides, in data set [2], the “% encap” value was found to be 98%.
In data set [1], `CCCCCCCCC(CC)OC(=O)CCCCCCCN(CCCCCCCC(=O)OC(CCCCCCCC)CCCCCCCC)C(=O)OCCSSCCOC(=O)NCCN(C)C` (stereo not shown) [ETG-55] yielded a PDI of 0.123 and a size of 93.73. Besides, the “% encap” value in data set [2] turned out to be 96%.
For `CCCCCCCCC(CC)OC(=O)CCCCCCCN(CCCCCCCC(=O)OC(CCCCCCCC)CCCCCCCC)C(=O)OCCSSCCOC(=O)NCCN1CCCCCC1` (stereo not shown) [ETG-56], in data set [1], the PDI was determined as 0.120 and the size was determined as 86.26. Also, the “% encap” value in data set [2] came to 98%.
For `CCCCCCCCC(CCCCCCCC)OC(=O)CCCCCCCN(CCCCCC(=O)OC(CCCCCCCC)CCCCCCCC)C(=O)OCCSSCCOC(=O)NCCN(C)C` [ETG-57] the same measures were 0.114, 109.10 and 95%.
Take `CCCCCCCCC(CCCCCCCC)OC(=O)CCCCCCCN(CCCCCC(=O)OC(CCCCCCCC)CCCCCCCC)C(=O)OCCSSCCOC(=O)NCCN1CCCCCC1` [ETG-58]: in data set [1], the PDI turned out to be 0.086 and the size was 101.50. Also, in data set [2], the “% encap” value came out at 98%.
